The source of these data is patent publication US20220332750A1, “ADENOSINE COMPOUND, ITS PHARMACEUTICALLY ACCEPTABLE SALT OR ITS STEREOISOMER AND USE THEREOF” (ACADEMY OF MILITARY MEDICAL SCIENCES, priority 2019, published 2022).

In general, Ki refers to a dissociation constant, usually derived from enzyme kinetics or from competition with a known ligand. The term IC50 denotes the midpoint of a concentration-inhibition curve. For orientation: melting point means the temperature of the solid-liquid transition. What is called EC50 is the concentration needed to bring the measured effect to its halfway point. High values mean lower potency in that assay, low ones higher potency in that assay.

Data set [1] deals with T1, (human) A2A adenosine receptor (Homo sapiens, UniProt P29274).
T1 construct: purchased PerkinElmer Research Products (Boston, Mass.); host or cells: HEK-293 cell membranes, stably transfected
T1 sequence (P29274 whole entry): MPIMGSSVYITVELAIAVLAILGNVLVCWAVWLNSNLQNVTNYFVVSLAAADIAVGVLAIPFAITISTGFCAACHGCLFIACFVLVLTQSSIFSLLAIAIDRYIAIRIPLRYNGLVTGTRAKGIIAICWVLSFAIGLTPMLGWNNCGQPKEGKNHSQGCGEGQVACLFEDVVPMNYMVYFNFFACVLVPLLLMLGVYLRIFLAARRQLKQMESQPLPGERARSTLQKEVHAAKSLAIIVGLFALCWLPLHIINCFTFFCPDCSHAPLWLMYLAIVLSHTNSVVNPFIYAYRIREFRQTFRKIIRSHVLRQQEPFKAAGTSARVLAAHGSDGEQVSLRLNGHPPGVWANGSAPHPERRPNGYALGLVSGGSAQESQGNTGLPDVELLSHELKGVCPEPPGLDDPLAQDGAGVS
The data set is described as follows: Radioligand binding test ([3H]-CGS21680 displacement). The settings on record: for Ki: calculated from IC50 by Cheng-Prusoff equation, [S] 25 nM, Km 22 nM; for IC50: hA2A HEK-293 cell membrane, [3H]-CGS21680 25 nM, 25° C. 90 minutes. As to the method: [3H]-CGS21680 (2-[p-(2-carboxyethyl)phenylethylamino]-5′-N-ethylcarboxamido-adenosine, [carboxy-1-ethyl-3H(N)]—; 250 μCi): purchased from PerkinElmer Research Products (Boston, Mass.);
The cell membrane stably transfected with (human) A2A adenosine receptor was prepared in HEK-293 cells, and the cell membrane was obtained from PerkinElmer Research Products (Boston, Mass.);
CGS 21680 (2-[p-(2-carboxyethyl)phenylethylamino]-5′-N-ethylcarboxamidoadenosine) was purchased from Selleck (Shanghai, CN);
The A2A adenosine receptors used were all expressed in the cell membrane. Each compound was continuously diluted 3 times with DMSO (Solarbio, D8371-250 ml) to generate compound source plates with 10 different concentrations (10 μM, 3.3 μM, 1.1 μM, 0.37 μM, 0.12 μM, 0.0412 μM, 0.0137 μM, 0.0046 μM, 0.0015 μM, 0.0005 μM), 250 nL of compounds were added to 384-well Opti-plate, sealed with parafilm; 1 mL of assay buffer (containing 50 mM Tris-HCl, pH 7.4, 10 mM MgCl2, 1 mM EDTA, 1 μg/mL adenosine deaminase) was added to 20 U hA2A HEK-293 cell membrane for dilution, 0.75 μCi [3H]-CGS21680 (final 25 nM) was added to the diluted cell membrane and mixed well; 50 μL of the prepared cell membrane dilution was transferred to the 384-well Opti-plate containing fresh compounds and incubated at 25° C. for 90 minutes; 100 μL of 0.5% polyethyleneimine solution (PEI) was added to UNIFILTER-96 GF/B filter plate, and soaked at 4° C. for 90 minutes, then the UNIFILTER-96 GF/B filter plate was washed twice with 500 μL of washing buffer per well (washing buffer contained 50 mM Tris-HCl pH 7.4, 154 mM NaCl) which was transferred by Cell Harvester; then, the mixture system in the Opti-plate was transferred to the cleaned UNIFILTER-96 GF/B filter plate, and then the UNIFILTER-96 GF/B filter plate was washed 9 times with 500 μL of washing buffer per well (washing buffer contained 50 mM Tris-HCl, pH 7.4, 154 mM NaCl), and incubated for 3 minutes in a 37° C. incubator; 40 μL of ULTIMA GOLD scintillation fluid (Perkin Elmer, Cat #77-16061) was added to each well, MicroBeta liquid scintillation counter (PerkinElmer) was used to read CPM (count per minute) value. The specific binding percentage of [3H]CGS21680 was calculated according to the CPM value, % specific binding of [3H]CGS21680=(CPMsample−CPMLow Control)/(CPMHigh Control−CPMLow Control)*100, wherein High Control was 0.5% DMSO, Low Control was 100 μM CGS21680. According to the compound concentration and the specific binding percentage of [3H]CGS21680, curve fitting was performed to calculate IC50 value.
The binding inhibition constant (Ki) value was calculated from the IC50 value according to the Cheng-Prusoff equation, Ki=IC50/(1+[S]/Km), wherein [S] was radioligand concentration (25 nM), and Km was human A2AAR dissociation constant of [3H]CGS21680 (22 nM).

The target in data set [2] is human adenosine receptor A2A (hADORA2A-HEK293 cells) (Homo sapiens, UniProt P29274). The data set is described as follows: cAMP test of A2A adenosine receptor. It counts as cell-based. The settings on record: LANCE Ultra cAMP kit. The text has this: DMEM/F12, G418, Penicillin-Streptomycin, Versene solution, HEPES, Hank's buffer saline aqueous solution, PBS (pH 7.4, 1×, sterile), FBS, 7.5% BSA stabilizer, Rolipram, NECA, were purchased from Gibico, Hyclone and Sigma, respectively;
Sequence of human adenosine receptor A2A (hADORA2A-HEK293 cells) (P29274 whole entry): as above
LANCE® Ultra cAMP kit (containing Eu-cAMP tracer, Ulight-anti-cAMP reagent, cAMP detection buffer) and hADORA2A-HEK293 cells were purchased from PerkinElmer Research Products (Boston, Mass.);
The cells stably expressing human adenosine receptor A2A (hADORA2A-HEK293 cells) were cultured in DMEM/F12 medium containing 10% FBS, 1× Penicillin-Streptomycin and 400 μg/ml G418 in the environment of 37° C. and 5% CO2. Before the experiment, the cells were digested with Versene solution. […] EnVison microplate reader (EnVision multimode plate reader, PerkinElmer) was used to determine the level of cyclic adenosine monophosphate in the final solution (λex=320 nm, λem=665 nm & 615 nm). The EC50 (nM) value that stimulated the production level of cyclic adenosine monophosphate when the test compound interacted with the A2A adenosine receptor was calculated. The A2A receptor agonist titer of the compound was expressed as the EC50 (nM) value that stimulated the production level of cyclic adenosine monophosphate when the compound interacted with the A2A adenosine receptor. […]

Consider `Nc1nc(-c2ccc(NC(=O)Nc3cccnc3)cc2)nc2c1ncn2[C@@H]1O[C@H](CO)[C@@H](O)[C@H]1O` [Compound 1, 1-{4-{6-amino-9-[(2R,3R,4S,5R)-3,4-dihydroxy-5-(hydroxymethyl)tetrahydrofuran-2-yl]-9H-purin-2-yl}phenyl}-3-(pyridin-3-yl)urea], for which the melting point turned out to be 230 °C. Further, in data set [1], the Ki is 778 nM and the half-maximal inhibitory concentration (IC50) worked out at 1660 nM.

With `Nc1nc(-c2ccc(NC(=O)Nc3ccc(CO)cc3)cc2)nc2c1ncn2[C@@H]1O[C@H](CO)[C@@H](O)[C@H]1O` [Compound 2, 1-{4-{6-amino-9-[(2R,3R,4S,5R)-3,4-dihydroxy-5-(hydroxymethyl)tetrahydrofuran-2-yl]-9H-purin-2-yl}phenyl}-3-[4-(hydroxymethyl)phenyl]urea], the melting point came out at 174 °C. In data set [2], it took 228 nM to reach a half-maximal effect (EC50). Further, in data set [1], the Ki was 16.4 nM and the IC50 came out at 35 nM.

In the case of `Nc1nc(-c2ccc(NC(=O)NC3CC3)cc2)nc2c1ncn2[C@@H]1O[C@H](CO)[C@@H](O)[C@H]1O` [Compound 3, 1-{4-{6-amino-9-[(2R,3R,4S,5R)-3,4-dihydroxy-5-(hydroxymethyl)tetrahydrofuran-2-yl]-9H-purin-2-yl}phenyl}-3-cyclopropylurea], the melting point worked out at 174 °C. In addition, in data set [1], the Ki was 15.9 nM and the half-inhibitory concentration (IC50) was 34 nM.
